For data set [1], the target named is T1, SsOGT-H^5 (Saccharolobus solfataricus, UniProt Q97VW7, G105K/K110E/M106T/R102A/S100A/S132E).
T1 construct: His6-tag; made in house; host or cells: E. coli ABLE C
The data set can be described thus: AGTs' substrate assay by competitive inhibition method with SVG (gel-imaging). The data set is classed as biochemical. The protocol:
Competitive inhibition assay was performed as described[23]^,[38]. Briefly, by using a fixed concentration of the fluorescent SVG (5 µM) and enzymes (5 µM), an increasing amount of guanine-derivatives (0–2 mM) was added to the mixtures. […] Subsequently, fluorescent bands were measured by gel-imaging on a VersaDoc 4000™ system (Bio-Rad), by applying a blue LED/530 bandpass filter. Obtained data were finally plotted by Equation (1), (1) RF=100%/1+([I]/IC50)^[S] where RF is the obtained Relative Fluorescence, [I] and [S] are the concentration of the inhibitor and the substrate, respectively, and finally the IC50 is the concentration needed to reduce by 50% the fluorescence intensity of the protein band.
(§1) We evaluated the activity of SNAP-tag® and H^5 enzymes on BGN3 and BGSN3 by the afore-mentioned IC50 method (Figure S5(A,B)) and other O^6-guanine-derivatives (Table 1).
(§2) Because most of them are non-fluorescent compounds, we performed an AGTs’ competitive inhibition assay by using the fluorescein-derivative SNAP-Vista® Green as substrate (SVG), as previously described[22–24]^,[45]. Briefly, the reaction of an AGT with SVG led to a fluoresceinated protein, which can be visualised as a fluorescent band in gel-imaging analysis after SDS-PAGE. The presence of increasing amounts of a non-fluorescent competitor in the reaction causes a decrease of the fluorescent signals, which can be measured and plotted for the IC50 values determination[23]^,[46].

Data set [2] concerns the target T2, SNAP-tag® (Homo sapiens, UniProt P16455, A127T/C150S/C62A/G131K/G132T/K125A/M134L/N157G/R128A/R135S/S159E).
T2 sequence (P16455 1-182 C62A/K125A/A127T/R128A/G131K/G132T/M134L/R135S/C150S/N157G/S159E): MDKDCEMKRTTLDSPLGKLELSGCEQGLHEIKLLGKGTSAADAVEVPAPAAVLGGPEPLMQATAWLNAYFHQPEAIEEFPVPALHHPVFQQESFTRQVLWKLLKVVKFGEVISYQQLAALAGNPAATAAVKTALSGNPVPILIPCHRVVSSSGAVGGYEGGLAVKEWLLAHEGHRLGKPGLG
Described as above. Format: biochemical. The note with it: for IC50: SVG 5 µM, enzyme 5 µM, 30 min at 25 °C. As for the experimental part: Competitive inhibition assay was performed as described[23]^,[38]. Briefly, by using a fixed concentration of the fluorescent SVG (5 µM) and enzymes (5 µM), an increasing amount of guanine-derivatives (0–2 mM) was added to the mixtures. The reactions were incubated for 30 min at 25 °C and 50 °C for SNAP-tag® and H^5 respectively, and loaded on SDS-PAGE. Subsequently, fluorescent bands were measured by gel-imaging on a VersaDoc 4000™ system (Bio-Rad), by applying a blue LED/530 bandpass filter. Obtained data were finally plotted by Equation (1), (1) RF=100%/1+([I]/IC50)^[S] where RF is the obtained Relative Fluorescence, [I] and [S] are the concentration of the inhibitor and the substrate, respectively, and finally the IC50 is the concentration needed to reduce by 50% the fluorescence intensity of the protein band.
as §1, §2

For data set [3], the system named is HEK293T cells transfected with SNAP-tag® plasmid. Briefly: Permeability of eukaryotic cells to BGSN3 (lysates then incubated with SVG, gel-imaging). Format: cell-based. The protocol:
HEK293T cells were maintained at 37 °C with 5% CO2 in Dulbecco’s Modified Essential Medium (Invitrogen, Carlsbad, CA) supplemented with 10% Foetal Bovine Serum (FBS) (Invitrogen) and 100 U/ml Penicillin/Streptomycin (Roche, Switzerland). HEK293T cells were transfected with SNAP-tag® plasmid by using Lipofectamine 2000 (Invitrogen) following manufacturer’s protocol. The treatment with BGSN3 were performed, at the concentration and time indicated for each experiment. Twenty-four hours after transfection, we treated cells with BGSN3 for 2 h at different concentrations ranging (from 1 to 25 µM), directly dissolving the compound in complete culture medium. Then cells were harvested, washed with PBS 1× buffer and lysed with 50 mM Tris-HCl pH 7.4, 150 mM NaCl, 0.5 mM EDTA, 0.1% Triton X-100 supplemented with complete protease (Roche, Switzerland) and phosphatase (SERVA Electrophoresis, Germany) inhibitors. Afterwards, transfected cells were treated with a fixed concentration of BGSN3 (10 µM) at different time points (from 30 to 120 min). Again, HEK293T cells were washed and lysed as described before. […] Subsequently, proteins were loaded on SDS-PAGE and analysed by gel-imaging on a VersaDoc 4000™ system (Bio-Rad), by applying a blue LED/530 bandpass filter (Figure 6).

Data set [4] addresses T2, SNAP-tag®. Also on record: method as in PMID 18291317, PMID 26499124. The note with it: 25 °C; obtained by using a BG-fluorescein substrate (BG-FL) very similar to SVG; cited from earlier work.
Data set [5] concerns the target T1, SsOGT-H^5. The note with it: cited from earlier work.
Setting [6] is: SVG 5 µM, enzyme 5 µM, 30 min at 50 °C, read-out: IC50.

Read-outs that look alike come from different tables or passages of the source.

T1 sequence (Q97VW7 whole entry S100A/R102A/G105K/M106T/K110E/S132E): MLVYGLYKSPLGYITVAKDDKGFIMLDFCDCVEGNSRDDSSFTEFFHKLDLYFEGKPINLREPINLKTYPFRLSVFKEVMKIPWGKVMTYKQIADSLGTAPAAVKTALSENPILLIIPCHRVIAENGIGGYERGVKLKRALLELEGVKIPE

Take `Nc1nc(OCc2ccccc2)c2nc[nH]c2n1` [BG, O^6-benzyl-guanine]: the IC50 – broadly, the concentration that gives 50% inhibition – on SsOGT-H^5 [1] (setting [6]) came out at 10.1 ± 1 µM.
On to `[N-]=[N+]=NCc1ccc(COc2nc(N)nc3nc[nH]c23)cc1` [BGN3, O^6-BG-N3], for which the IC50 was found to be 15.6 ± 0.3 µM at SNAP-tag® [2] and 23.5 ± 1 µM on SsOGT-H^5 [1] (setting [6]).
With `[N-]=[N+]=NCCCC(=O)NCc1ccc(COc2nc(N)nc3[nH]cnc23)cc1` [BGSN3, N-(4-(((2-amino-9H-purin-6-yl)oxy)methyl)benzyl)-4-azidobutanamide], the figures for the IC50 on SNAP-tag® [2] and at SsOGT-H^5 [1] were 17.8 ± 1.1 µM and 10 ± 0.7 µM, respectively. For the same compound, the “concentration for internalisation (absence of SVG signal)” value in data set [3] (2 h treatment in culture medium) is on record as < 5 µM. In addition, the time of internalisation entry in data set [3] (BGSN3 10 µM in culture medium) is “ca. 30 min”.
Take BG-PEG-NH2 [BGPA]: the IC50 on SNAP-tag® [2] was determined as 86 ± 6.7 µM; on SsOGT-H^5 [1] (setting [6]), 14.3 ± 1.9 µM.
Take SNAP Cell^® 430 [SC430]: the “competition with SVG” value at SNAP-tag® [2] (competitive inhibition assay) and at SsOGT-H^5 [1] (competitive inhibition assay) was “completely lost the competition with SVG” throughout.
On to SNAP Cell^® Block [SCB], for which the IC50 was determined as 2.1 ± 0.5 µM at SNAP-tag® [2] and 4.4 ± 0.8 µM at SsOGT-H^5 [1] (setting [6]).
Take SNAP-Vista^® Green [SVG]: the “k (second order rate constant of the enzymatic reaction)” value on SNAP-tag® [4] was 2.8 × 10^4 b s^−1 M^−1; at SsOGT-H^5 [5], 16000 M⁻¹ s⁻¹.
For methyl-guanine-PEG-NH2 [MGPA], on SsOGT-H^5 [1] (competitive assay for H^5 performed at 65 °C, read-out: IC50), the IC50 worked out at 269 ± 19.1 µM.

The record behind these values is PMC7599001, “The SNAP-tag technology revised: an effective chemo-enzymatic approach by using a universal azide-based substrate” (Journal of Enzyme Inhibition and Medicinal Chemistry, 2020).
